Laboratory results: US8710237B2, “Small molecule inhibitors of kynurenine-3-monooxygenase” (The J. David Gladstone Institute, priority 2006, dated 2014)
Marks after values point to notes of the source that are not given here.

Key:
[1] = system: kynurenine-3-monooxygenase; assay: KMO inhibition, radiometric assay (Erickson et al.); type: biochemical; conditions: 10 μM compound
Experimental: The KMO inhibiting activities of the compounds of the present invention were evaluated using standard methods. See Erickson et al., A Radiometric Assay for Kynurenine 3-Hydroxylase Based on the Release of ^3H2O During Hydroxylation of L-[3,5-^3H]-Kynurenine, Anal. Biochem. 1992, 205, 257-262, the disclosure of which is hereby incorporated by reference.
The IC50 value is the half maximal inhibitory concentration and represents the concentration of an inhibitor that is required for 50% inhibition of an enzyme activity and the percent inhibition measures the amount of enzyme activity inhibited at a given concentration of compound.

3-HK in the brain = assay: In vivo comparison: 3-HK in the brain after oral administration (FIG. 12)
Source text: The structure of the compound 61-8048 is as below:

[2] = system: R6/2 model of Huntington's disease; assay: Survival in a mouse model of Huntington's disease (FIG. 13); type: in vivo; conditions: R6/2 mice
Source text: The structure of the compound M is

Compound | % inhibition at 10 μM [1] | melting point | further results
COc1ccc(S(=O)(=O)Nc2nc(-c3cccc([N+](=O)[O-])c3)c(CN3CCCCC3)s2)cc1OC [C, 3,4-dimethoxy-N-[4-(3-nitrophenyl)-5-(piperidin-1-ylmethyl)-1,3-thiazole-2-yl]benzenesulfonamide] | 24% |  | 
COC(=O)N(c1nc(-c2cccc([N+](=O)[O-])c2)cs1)S(=O)(=O)c1ccc(OC)c(OC)c1 [W, 3,4-dimethoxy-N-[4-(3-nitrophenyl)thiazol-2-yl]-N-(methylcarboxylate)benzenesulfonamide] | 85% |  | 
COc1ccc(S(=O)(=O)Nc2nc(-c3cccc([N+](=O)[O-])c3)c(CN3CCN(C)CC3)s2)cc1OC [E, 3,4-dimethoxy-N-[4-(3-nitrophenyl)-5-((4-methylpiperazin-1-yl)methyl)-1,3-thiazole-2-yl]benzenesulfonamide] | 6* % | 215 to 217 °C | 
CCN(CC)Cc1sc(NS(=O)(=O)c2ccc(OC)c(OC)c2)nc1-c1cccc([N+](=O)[O-])c1 [F, 3,4-dimethoxy-N-[4-(3-nitrophenyl)-5-(diethylamino)methyl-1,3-thiazole-2-yl]benzenesulfonamide] | 74% | 165 to 168 °C | 
CCOC(=O)CN(c1nc(-c2cccc([N+](=O)[O-])c2)cs1)S(=O)(=O)c1ccc(OC)c(OC)c1 [U, 3,4-dimethoxy-N-[4-(3-nitrophenyl)thiazol-2-yl]-N-[(ethylcarboxylate)methyl]benzenesulfonamide] | 81% |  | 
COc1ccc(S(=O)(=O)Nc2nc(-c3cccc([N+](=O)[O-])c3)cs2)cc1OC [Compound 61-8048, 3,4-Dimethoxy-N-[4-(3-nitrophenyl)thiazol-2-yl]benzenesulfonamide, reference compound] |  |  | decrease of 3-HK in the brain (3-HK in the brain): does not decrease; effect on survival ([2]; 100 mg/kg/day, not shown in the figure): did not have a significant effect on survival
CCOC(=O)N(c1nc(-c2cccc([N+](=O)[O-])c2)cs1)S(=O)(=O)c1ccc(OC)c(OC)c1 [V, 3,4-dimethoxy-N-[4-(3-nitrophenyl)thiazol-2-yl]-N-(ethylcarboxylate)benzenesulfonamide] | 84% |  | 
CCCN(C)Cc1sc(NS(=O)(=O)c2ccc(OC)c(OC)c2)nc1-c1cccc([N+](=O)[O-])c1 [G, 3,4-dimethoxy-N-[4-(3-nitrophenyl)-5-(methylpropylamino)methyl-1,3-thiazole-2-yl]benzenesulfonamide] | 73% | 143 to 145 °C | 
COc1ccc(S(=O)(=O)Nc2nc(-c3cccc([N+](=O)[O-])c3)c(CN3CCSCC3)s2)cc1OC |  | 136 °C | 
COc1ccc(S(=O)(=O)Nc2nc(-c3cccc([N+](=O)[O-])c3)c(CN3CCCC3)s2)cc1OC [B, 3,4-dimethoxy-N-[4-(3-nitrophenyl)-5-(pyrrolidin-1-ylmethyl)-1,3-thiazole-2-yl]benzenesulfonamide] | 9* % | 198 to 200 °C | 
COc1ccc(S(=O)(=O)N(CN2CCCCC2)c2nc(-c3cccc([N+](=O)[O-])c3)cs2)cc1OC [Compound M] |  |  | magnitude of the effect of protection (survival) [2]: equal to or greater to that reported for any single agent administered in this model
COc1ccc(S(=O)(=O)N(C)c2nc(-c3cccc([N+](=O)[O-])c3)cs2)cc1OC [T, 3,4-dimethoxy-N-[4-(3-nitrophenyl)thiazol-2-yl]-N-(methyl)benzenesulfonamide] | 52% |  | 
COc1ccc(S(=O)(=O)Nc2nc(-c3cccc([N+](=O)[O-])c3)c(CN(C)C)s2)cc1OC [A, 3,4-dimethoxy-N-[4-(3-nitrophenyl)-5-dimethylaminomethyl-1,3-thiazole-2-yl]benzenesulfonamide] | 58% | 203 °C | 
COc1ccc(S(=O)(=O)Nc2nc(-c3cccc([N+](=O)[O-])c3)c(CN3CCOCC3)s2)cc1OC [D, 3,4-dimethoxy-N-[4-(3-nitrophenyl)-5-morpholinomethyl-1,3-thiazole-2-yl]benzenesulfonamide] | 64% | 143 °C | 
